We go through 38 compounds from patent US8211935B2, “Heterocyclic derivatives for modulation of calcium channels” (Vertex Pharmaceuticals Incorporated, priority 2004, dated 2012).

Molecules are shown by their SMILES. Some results are limits rather than exact numbers.

The conditions of assay [1]: neuropathic pain; cited from earlier work.
The next assay concerns the target T1, CaV2.2 (Homo sapiens, UniProt Q00975).
T1 construct: expressed in transfected cells; host or cells: HEK293
Description: VIPR optical membrane potential assay with electrical stimulation. In kind it is cell-based. As to conditions: Table 3, biological assay data; read-out: IC50. A digest of the protocol: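 HEK293 cells stably expressing CaV2.2, stained with CC2-DMPE (10 μM final) and oxonol voltage-sensitive dyes, compound added with BaCl2. Membrane potential response evoked by 3-5 s electrical stimulation. Read as background-subtracted 460/580 nm emission ratio, response R=Rf/Ri, normalized to mibefradil positive and no-drug negative controls.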

T1 sequence (Q00975 whole entry): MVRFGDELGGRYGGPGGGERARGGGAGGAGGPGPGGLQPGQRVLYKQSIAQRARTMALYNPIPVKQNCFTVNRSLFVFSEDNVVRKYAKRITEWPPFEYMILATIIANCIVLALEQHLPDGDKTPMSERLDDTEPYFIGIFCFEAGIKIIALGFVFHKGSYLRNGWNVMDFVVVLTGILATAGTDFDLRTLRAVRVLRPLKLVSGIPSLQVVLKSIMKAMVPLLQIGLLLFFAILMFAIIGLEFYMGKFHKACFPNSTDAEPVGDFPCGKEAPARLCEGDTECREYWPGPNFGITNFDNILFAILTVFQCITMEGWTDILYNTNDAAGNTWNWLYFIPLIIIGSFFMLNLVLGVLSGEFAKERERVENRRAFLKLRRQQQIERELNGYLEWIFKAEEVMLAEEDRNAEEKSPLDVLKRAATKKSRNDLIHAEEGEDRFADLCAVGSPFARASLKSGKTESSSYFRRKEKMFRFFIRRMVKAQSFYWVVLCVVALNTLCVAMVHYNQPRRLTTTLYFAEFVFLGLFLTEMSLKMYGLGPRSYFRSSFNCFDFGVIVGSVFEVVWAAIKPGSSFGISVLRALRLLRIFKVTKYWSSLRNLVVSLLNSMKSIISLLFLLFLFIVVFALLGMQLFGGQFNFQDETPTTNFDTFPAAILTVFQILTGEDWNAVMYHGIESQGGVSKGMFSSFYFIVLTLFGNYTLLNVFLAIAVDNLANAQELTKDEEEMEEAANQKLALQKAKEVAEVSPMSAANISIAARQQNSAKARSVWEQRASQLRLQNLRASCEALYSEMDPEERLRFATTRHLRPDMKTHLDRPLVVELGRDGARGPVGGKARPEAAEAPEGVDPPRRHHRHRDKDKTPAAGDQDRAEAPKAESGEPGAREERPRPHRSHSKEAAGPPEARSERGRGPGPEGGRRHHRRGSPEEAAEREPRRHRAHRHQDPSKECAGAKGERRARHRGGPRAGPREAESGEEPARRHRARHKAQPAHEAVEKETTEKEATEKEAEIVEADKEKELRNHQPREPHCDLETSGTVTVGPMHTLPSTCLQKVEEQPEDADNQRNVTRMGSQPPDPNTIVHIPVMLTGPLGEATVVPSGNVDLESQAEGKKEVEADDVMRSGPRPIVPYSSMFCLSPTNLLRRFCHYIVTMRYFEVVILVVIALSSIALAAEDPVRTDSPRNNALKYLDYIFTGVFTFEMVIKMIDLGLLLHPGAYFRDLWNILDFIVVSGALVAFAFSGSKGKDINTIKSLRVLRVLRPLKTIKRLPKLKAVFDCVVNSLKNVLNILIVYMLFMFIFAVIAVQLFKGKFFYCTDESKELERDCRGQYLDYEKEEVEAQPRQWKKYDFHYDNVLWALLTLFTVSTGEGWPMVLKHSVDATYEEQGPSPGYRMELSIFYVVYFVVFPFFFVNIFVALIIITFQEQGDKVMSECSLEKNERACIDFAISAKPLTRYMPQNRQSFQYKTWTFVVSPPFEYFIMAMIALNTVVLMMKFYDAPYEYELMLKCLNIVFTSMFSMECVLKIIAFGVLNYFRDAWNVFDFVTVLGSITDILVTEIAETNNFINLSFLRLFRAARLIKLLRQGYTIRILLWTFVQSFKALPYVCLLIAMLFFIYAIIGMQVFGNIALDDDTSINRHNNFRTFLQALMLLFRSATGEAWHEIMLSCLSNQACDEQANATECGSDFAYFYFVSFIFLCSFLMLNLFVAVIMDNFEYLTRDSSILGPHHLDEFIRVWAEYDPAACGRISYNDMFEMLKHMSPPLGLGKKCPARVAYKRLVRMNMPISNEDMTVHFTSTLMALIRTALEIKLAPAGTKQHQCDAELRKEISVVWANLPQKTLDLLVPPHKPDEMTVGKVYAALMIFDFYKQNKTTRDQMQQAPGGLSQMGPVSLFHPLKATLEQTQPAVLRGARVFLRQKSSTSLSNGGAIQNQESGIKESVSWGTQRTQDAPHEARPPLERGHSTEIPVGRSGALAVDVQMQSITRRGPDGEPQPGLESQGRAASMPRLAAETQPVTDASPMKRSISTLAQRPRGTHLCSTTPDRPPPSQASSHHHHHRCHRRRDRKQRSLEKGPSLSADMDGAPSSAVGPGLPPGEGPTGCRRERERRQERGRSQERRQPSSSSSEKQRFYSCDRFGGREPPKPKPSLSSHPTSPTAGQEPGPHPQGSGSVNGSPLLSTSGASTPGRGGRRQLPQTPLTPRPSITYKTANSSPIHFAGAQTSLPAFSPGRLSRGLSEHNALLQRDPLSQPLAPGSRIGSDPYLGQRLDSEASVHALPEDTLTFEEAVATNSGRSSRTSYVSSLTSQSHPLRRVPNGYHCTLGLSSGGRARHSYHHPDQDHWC
T1 sequence (P54284 whole entry partner): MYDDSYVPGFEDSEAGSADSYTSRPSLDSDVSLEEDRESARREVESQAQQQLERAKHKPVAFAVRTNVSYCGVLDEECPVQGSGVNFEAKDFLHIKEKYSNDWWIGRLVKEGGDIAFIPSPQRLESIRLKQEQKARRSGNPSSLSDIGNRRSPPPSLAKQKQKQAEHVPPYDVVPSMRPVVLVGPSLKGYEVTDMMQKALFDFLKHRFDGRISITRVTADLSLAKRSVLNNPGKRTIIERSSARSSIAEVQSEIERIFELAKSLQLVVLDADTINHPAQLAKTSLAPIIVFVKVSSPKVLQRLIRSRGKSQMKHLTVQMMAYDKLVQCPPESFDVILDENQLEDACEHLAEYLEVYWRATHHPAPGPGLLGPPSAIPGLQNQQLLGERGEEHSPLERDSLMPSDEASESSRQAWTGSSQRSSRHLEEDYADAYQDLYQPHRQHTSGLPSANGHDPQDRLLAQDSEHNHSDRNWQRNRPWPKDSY
T1 sequence (P54289 25-946 partner limits assumed): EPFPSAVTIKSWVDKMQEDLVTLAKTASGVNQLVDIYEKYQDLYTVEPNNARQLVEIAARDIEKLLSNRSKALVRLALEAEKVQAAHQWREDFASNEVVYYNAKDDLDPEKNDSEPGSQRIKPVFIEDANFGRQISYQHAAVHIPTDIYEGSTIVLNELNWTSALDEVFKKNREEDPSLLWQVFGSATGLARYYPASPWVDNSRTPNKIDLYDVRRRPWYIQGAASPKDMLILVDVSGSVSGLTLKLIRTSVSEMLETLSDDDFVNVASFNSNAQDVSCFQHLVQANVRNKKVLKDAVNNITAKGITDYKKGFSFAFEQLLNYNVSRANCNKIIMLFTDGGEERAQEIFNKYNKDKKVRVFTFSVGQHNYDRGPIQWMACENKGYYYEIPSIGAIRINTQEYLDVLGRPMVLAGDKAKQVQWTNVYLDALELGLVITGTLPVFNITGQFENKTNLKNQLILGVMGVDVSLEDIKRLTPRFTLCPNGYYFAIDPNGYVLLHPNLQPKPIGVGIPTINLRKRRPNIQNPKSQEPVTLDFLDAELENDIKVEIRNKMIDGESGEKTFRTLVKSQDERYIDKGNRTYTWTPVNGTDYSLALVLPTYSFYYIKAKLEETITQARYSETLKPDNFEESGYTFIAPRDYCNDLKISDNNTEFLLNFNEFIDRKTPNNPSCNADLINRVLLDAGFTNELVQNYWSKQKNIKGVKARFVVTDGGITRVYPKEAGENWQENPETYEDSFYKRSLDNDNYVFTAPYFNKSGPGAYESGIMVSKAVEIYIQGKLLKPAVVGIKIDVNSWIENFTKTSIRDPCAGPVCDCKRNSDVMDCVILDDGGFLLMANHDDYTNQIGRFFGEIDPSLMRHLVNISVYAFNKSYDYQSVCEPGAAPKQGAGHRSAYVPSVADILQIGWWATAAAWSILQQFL
T1 sequence (P54289 947-1103 partner limits assumed): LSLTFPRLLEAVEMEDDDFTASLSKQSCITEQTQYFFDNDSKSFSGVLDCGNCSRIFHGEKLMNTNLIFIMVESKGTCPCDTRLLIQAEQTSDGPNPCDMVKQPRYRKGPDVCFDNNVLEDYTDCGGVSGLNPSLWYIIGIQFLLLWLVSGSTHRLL

Take `NCC1(CC(=O)O)CCCCC1` [Gabapentin]: in assay [1], the “patients in whom the drug works” value is 60%.
A word on the IC50: it is the concentration at which inhibition is half-maximal. For `CC1CCN(S(=O)(=O)c2ccc3[nH]cc(C(=O)NC4CC4)c3c2)CC1` [compound 434], the IC50 at CaV2.2 was below 20 µM.
The same measure, in the same setting: the result for `CNC(=O)c1cc2cc(S(=O)(=O)N3CC(C)CC(C)C3)ccc2n1C` (centres unmarked) [compound 435] reads below 5 µM; that for `CC1CCN(S(=O)(=O)c2ccc3[nH]c(C(=O)N4CCCCC4C)cc3c2)CC1` (centres unmarked) [compound 436], below 5 µM; that for `CC1CCCCN1C(=O)c1cc2cc(S(=O)(=O)N3CCCCCC3)ccc2[nH]1` (centres unmarked) [compound 437], below 20 µM.
For `CNC(=O)c1cc2cc(S(=O)(=O)N3CCC(C)CC3)ccc2o1` [compound 438], the IC50 at CaV2.2 was in the range of 5 to 20 µM.
Still for that read-out and setting: the result for `CCOC(=O)N1CCN(C(=O)c2[nH]c3ccc(S(=O)(=O)N4CC(C)CC(C)C4)cc3c2C)CC1` (centres unmarked) [compound 439] reads below 5 µM; that for `Cc1c(C(=O)N2CCCCC2)[nH]c2ccc(S(=O)(=O)N3CC(C)CC(C)C3)cc12` (centres unmarked) [compound 440], below 5 µM.
Regarding `Cc1c(C(=O)NCc2ccccc2)oc2ccc(S(=O)(=O)N3CC(C)CC(C)C3)cc12` (centres unmarked) [compound 441], the IC50 on CaV2.2 was below 5 µM.
As for `CNC(=O)c1[nH]c2ccc(S(=O)(=O)N3CCCCCC3)cc2c1C` [compound 442], the IC50 on CaV2.2 is 5 to 20 µM.
On the same count and under the same terms, the result for `Cc1c(C(=O)N(C(C)C)C(C)C)oc2ccc(S(=O)(=O)N3CCC(C)CC3)cc12` [compound 443] reads 5 to 20 µM; that for `CCNC(=O)c1oc2ccc(S(=O)(=O)N(CC)CC)cc2c1C` [compound 444], below 20 µM.
The same measure, in the same setting: next, `Cc1c(C(=O)NCCc2ccccc2)oc2ccc(S(=O)(=O)N3CCCC(C)C3)cc12` (centres unmarked) [compound 445]: below 5 µM; `Cc1c(C(=O)NC2CCCCC2)oc2ccc(S(=O)(=O)N3CCCCCC3)cc12` [compound 446]: 5 to 20 µM; `Cc1c(C(=O)NC2CC2)oc2ccc(S(=O)(=O)Nc3nccs3)cc12` [compound 447]: below 20 µM.
With `CC1CCN(S(=O)(=O)c2ccc3[nH]c(C(=O)NC4CCCCC4)cc3c2)CC1` [compound 448], the IC50 at CaV2.2 fell in the range of 5 to 20 µM.
With `Cc1c(C(=O)N2CC(C)OC(C)C2)oc2ccc(S(=O)(=O)N3CCC(C)CC3)cc12` (centres unmarked) [compound 449], the IC50 on CaV2.2 lay within 5 to 20 µM.
The same measure, in the same setting: the result for `Cc1c(C(=O)NC(C)C)[nH]c2ccc(S(=O)(=O)N3CC(C)CC(C)C3)cc12` (centres unmarked) [compound 450] reads 5 to 20 µM; that for `Cc1c(C(=O)N2CCCCC2)oc2ccc(S(=O)(=O)N3CC(C)CC(C)C3)cc12` (centres unmarked) [compound 451], below 5 µM; that for `CC1CC(C)CN(S(=O)(=O)c2ccc3c(c2)cc(C(=O)NCc2ccccc2)n3S(=O)(=O)c2ccccc2)C1` (centres unmarked) [compound 452], below 5 µM.
`Cc1c(C(=O)NC2CC2)oc2ccc(S(=O)(=O)Nc3cccnc3)cc12` [compound 453]: the IC50 at CaV2.2 is below 20 µM.
The same measure, in the same setting: the result for `CNC(=O)c1cc2cc(S(=O)(=O)N3CC(C)CC(C)C3)ccc2o1` (centres unmarked) [compound 454] reads below 5 µM; that for `CC1CC(C)CN(S(=O)(=O)c2ccc3oc(C(=O)NC4CCCCC4)cc3c2)C1` (centres unmarked) [compound 455], below 5 µM; that for `CC1CCN(S(=O)(=O)c2ccc3oc(C(=O)NCC4CCCO4)cc3c2)CC1` (centres unmarked) [compound 456], 5 to 20 µM.
The same measure, in the same setting: next, `Cc1c(C(=O)N2CCCC2)[nH]c2ccc(S(=O)(=O)N3CCC(C)CC3)cc12` [compound 457]: 5 to 20 µM.
Same read-out and setting: the result for `CCN(CC)S(=O)(=O)c1ccc2oc(C(=O)NCC3CCOCC3)c(C)c2c1` [compound 458] reads below 20 µM.
In the case of `Cc1c(C(=O)NC2CCCCC2)oc2ccc(S(=O)(=O)N3CCCCC3)cc12` [compound 459], the IC50 on CaV2.2 was 5 to 20 µM.
Same read-out and setting: next, `Cc1c(C(=O)N2CCCCC2)oc2ccc(S(=O)(=O)N3CCC(C)CC3)cc12` [compound 460]: 5 to 20 µM.
The same measure, in the same setting: the result for `CC1CC(C)CN(S(=O)(=O)c2ccc3c(c2)cc(C(=O)N(C)C)n3C)C1` (centres unmarked) [compound 461] reads below 5 µM.
The same measure, in the same setting: next, `Cc1c(C(=O)N2CCc3ccccc3C2)oc2ccc(S(=O)(=O)N3CCCCC3)cc12` [compound 462]: below 5 µM; `CCCN(CC1CC1)C(=O)c1cc2cc(S(=O)(=O)N3CC(C)CC(C)C3)ccc2n1C` (centres unmarked) [compound 463]: below 5 µM.
Turning to `Cc1c(C(=O)N(C)Cc2ccccc2)oc2ccc(S(=O)(=O)N3CCC(C)CC3)cc12` [compound 464], at CaV2.2, the IC50 is below 5 µM.
Consider `Cc1c(C(=O)NC2CCCCC2)oc2ccc(S(=O)(=O)N3CCC(C)CC3)cc12` [compound 465], for which the IC50 at CaV2.2 is 5 to 20 µM.
The same measure, in the same setting: next, `Cc1c(C(=O)N2CCC(C)CC2)oc2ccc(S(=O)(=O)N3CC(C)CC(C)C3)cc12` (centres unmarked) [compound 466]: below 5 µM; `Cc1c(C(=O)NCCC2CCOCC2)oc2ccc(S(=O)(=O)N3CCCC(C)C3)cc12` (centres unmarked) [compound 467]: below 5 µM; `Cc1c(C(=O)N2CCCCC2)oc2ccc(S(=O)(=O)N3CCCCCC3)cc12` [compound 468]: 5 to 20 µM.
Still for that read-out and setting: next, `CCNC(=O)c1cc2cc(S(=O)(=O)N3CC(C)CC(C)C3)ccc2o1` (centres unmarked) [compound 469]: below 5 µM; `CC1CC(C)CN(S(=O)(=O)c2ccc3c(c2)cc(C(=O)N2CCCCC2)n3S(=O)(=O)C(C)C)C1` (centres unmarked) [compound 470]: 5 to 20 µM.
